Values quoted from earlier work as cited in patent US7780647B2, “Medical device with therapeutic agents” (Cook Incorporated, priority 2003, dated 2010).

Key:
[1] = test system: restenosis of human coronary arteries; conditions: following stent use
[2] = test system: smooth muscle cell proliferation; conditions: both in vitro and in vivo

CC(=O)O[C@H]1C(=O)[C@@]2(C)[C@H]([C@H](OC(=O)c3ccccc3)[C@]3(O)C[C@H](OC(=O)[C@H](O)[C@@H](NC(=O)c4ccccc4)c4ccccc4)C(C)=C1C3(C)C)[C@]1(OC(C)=O)CO[C@@H]1C[C@@H]2O [paclitaxel]
restenosis of human coronary arteries [1]: decrease restenosis | smooth muscle cell proliferation [2]: inhibits smooth muscle cell proliferation
